In patent US8920819B2, “Delivery of hydrophilic drugs” (University College London, priority 2009, dated 2014):

Columns and labels:
CD-1 mice [1] = test: Antinociception, tail flick warm water bioassay, oral administration; type: in vivo, ICR (CD-1) male out bred mice; details: 70 mg Kg^-1 Leucine[5]-Enkephalin (L, LG) or 100 mg Kg^-1 TPLENK (PG), out of 16 mice
Procedure: (§1) ICR (CD-1) male out bred mice (22-28 g, 4-5 weeks old, Harlan, Oxon, UK) were used. The animals were housed in groups of 5 in plastic cages in controlled laboratory conditions with ambient temperature and humidity maintained at ˜22° C. and 60% with a 12-hour light and dark cycle (lights on at 8:00 and off at 20:00). Food and water were available ad libitum and the animals acclimatised for 5-7 days, prior to any experiments, in the Animal House, School of Pharmacy, University of London (London, UK). Animals were fasted overnight for oral delivery experiments. Animals were only used once and were acclimatised at the testing environment for at least 20 hours prior to testing. […]
Double de-ionised filtered (0.2 μm, 33 mm Millex GP syringe driven filter unit, PES membrane for sterilisation of aqueous solutions) water was used as the disperse phase. […] The administered volume was adjusted based on HPLC quantification of LENK and TPLENK and the body weight of each animal. […]
Antinociception was assessed in mice using the tail flick warm water bioassay (D'Amour and Smith 1941; Mogil et al. 1999). […] The response latency times, in centiseconds, recorded for each mouse to withdraw its tail by a “sharp flick” were recorded using a digital stopwatch capable of measuring 1/100th of a second. […] Briefly, percent antinociception was calculated as 100% ×(test latency-baseline latency)/(10 seconds−baseline latency). […]

[2] = Pharmacokinetics after oral administration; plasma and brain Leucine[5]-Enkephalin by radioimmunoassay; type: in vivo, ICR (CD-1) male out bred mice; details: mice
Procedure: ICR (CD-1) male out bred mice (18-24 g, 4 weeks old, Harlan, Oxon, UK) were used. The animals were housed in groups of 5 in plastic cages in controlled laboratory conditions with ambient temperature and humidity maintained at ˜22° C. and 60% with a 12-hour light and dark cycle (lights on at 7:00 and off at 19:00). Food and water were available ad libitum and the animals acclimatised for 5-7 days prior to any experiments in the Animal House, School of Pharmacy, University of London (London, UK). Animals were fasted overnight for oral delivery experiments. Animals were only used once and were acclimatised at the testing environment for at least 1 hour prior to testing.
Syringes were attached to 19-20G commercial gavage needles (2-3 cm long) for oral administration.
Double de-ionised filtered (0.2 μm, 33 mm Millex GP syringe driven filter unit, PES membrane for sterilisation of aqueous solutions) water was used as the disperse phase for the oral formulations. […] All formulations were prepared by vortexing (WhirliMixer, Fisherbrand) and then by probe sonication (MSE Soniprep 150) with the instrument set at 50% of its maximum output for 15 minutes on ice. The formulations were left overnight in the fridge; the administered volume was set to a maximum of 0.2 ml per mouse. The administered volume was adjusted based on the HPLC quantification of LENK and TPLENK and the body weight of each animal. The maximum volume was dosed for placebo (H2O) receiving mice.
Blood samples (0.4-0.8 mls per mouse) were collected into a chilled syringe and transferred into evacuated sterile spray coated (with tripotassium ethylenediamine tetraacetic acid—3.6 mg) medical grade PET tubes (3×75 mm K3E Vacutainer©, BD Biosciences, UK) and maintained on ice (4° C.) until centrifugation. There is no dilution effect in spray coated tubes. Plasma was obtained as the supernatant after centrifugation of blood samples at 1,600 g or 4800 rpm for 15 minutes at 4° C. with a Hermle Z323 centrifuge (Hermle Laborteschink GmbH, Germany) and was pipetted into 1.5 mL centrifuge tubes and stored at −70° C. for later use.
Brain tissue minus the cerebellum (0.25-0.35 g) recovered from mice was immediately frozen in liquid nitrogen (−80° C.) until they were homogenised. The brain weight was recorded for each individual animal. After thawing tissues were boiled for 10 minutes in 30 volumes of a mixture of 1M of acetic acid, 0.02M of hydrochloric acid and 0.1% 2-mercaptoethanol (De Ceballos et al. 1991; Ahmed et al. 1994; Wu et al. 2005). The tissues were homogenised with 80 strokes per minute for half a minute with a glass 3 mL homogeniser (Jencons-PLS, England). […]

[3] = HPLC quantification of the peptide content of the formulations; type: physicochemical; details: formulations for oral administration, not filtered
Text: Formulations were not filtered.
The formulations were left overnight in the fridge and prior to intravenous administration were filtered (0.8 μm, 13 mm, Acrodisc Syringe Filter, Super Low Protein Binding Non-Pyrogenic Membrane, PALL Life Sciences). A clear filtrate was obtained for Leucine^[5]-Enkephalin and Leucine^[5]-Enkephalin and GCPQ and a translucent liquid was obtained for Palmitoylated Leucine^[5]-Enkephalin (TPLENK) and GCPQ. The administered intravenous volume of the formulations was set to a maximum of 0.2 ml per mouse. […] The maximum volume was dosed for placebo (NaCl, 0.9% w/v) receiving mice.
Polymer dispersions with Leucine^[5]-Enkephalin (LENK) or Palmitoylated Leucine^[5]-Enkephalin (TPLENK) were dissolved in mobile phase and analysed by HPLC. Samples were chromatographed over a reverse phase HPLC Sunfire C18 column (5 μm, 4.6 mm×250 mm) with a guard column attached [Waters Sunfire C18 (5 μm, 4.6 mm×10 mm)], using a Waters™ 515 HPLC pump connected to a Water™ 717 plus Autosampler with a Waters™ 486 Tunable Absorbance Detector. The mobile phase consisted of 82% 50 mM acetate buffer and 18% acetonitrile (pH 5.8). Unless otherwise indicated, samples were detected at 280 nm. The flow rate was set at 1 mL min^−1 at 35° C. and an injection volume of 40 μL was used. […] Empower software I was used for data analysis. […]

CD-1 mice [4] = test: Antinociception, tail flick warm water bioassay, intravenous administration; type: in vivo, ICR (CD-1) male out bred mice; details: 14 mg Kg^-1 Leucine[5]-Enkephalin (L, LG) or 20 mg Kg^-1 TPLENK (PG), out of 8 mice
Procedure: as §1, with “60% respectively” for “60%”, “were” for “were fasted overnight for oral delivery experiments. Animals were”, “acclimatised in” for “acclimatised at”
Sodium Chloride 0.9% (pH 7.4) was used as the disperse phase. […] The administered volume was adjusted based on HPLC quantification of Leucine^[5]-Enkephalin and TPLENK and the body weight of each animal. […]
Antinociception was assessed in mice using the tail flick warm water bioassay (D'Amour and Smith 1941; Mogil et al. 1999). […] The response latency times, in centiseconds, recorded for each mouse to withdraw its tail by a “sharp flick” were recorded using a digital stopwatch capable of measuring 1/100th of a second. […] Mice not responding within 5 sec were excluded from further testing (Baseline cut-off=5 seconds) and the baseline latency was measured for all mice 2 hours prior testing. […]
All results were expressed as mean±standard error (i.e. SE: SD/√n). […]

For `CC(C)C[C@H](NC(=O)[C@H](Cc1ccccc1)NC(=O)CNC(=O)CNC(=O)[C@@H](N)Cc1ccc(O)cc1)C(=O)O` [L, Leucine^[5]-Enkephalin], the “analgesic responders (response 2 or more times the baseline latency)” value (CD-1 mice [1]) was 31.25%, the “mice reaching maximal possible latencies” value (CD-1 mice [1]; cut-off 10 seconds) was 6.25% and the “time of peak Leucine[5]-Enkephalin concentration in the brain tissue” value ([2]; 70 mg Kg^-1 Leucine[5]-Enkephalin (L, LG) or 100 mg Kg^-1 TPLENK (PG), brain) was 4 h. The “peak Leucine[5]-Enkephalin concentration in the brain tissue” value ([2]; 70 mg Kg^-1 Leucine[5]-Enkephalin (L, LG) or 100 mg Kg^-1 TPLENK (PG), brain, at 4 hours) was 0.695 ng/g, the “peak plasma concentration of Leucine[5]-Enkephalin” value ([2]; 70 mg Kg^-1 Leucine[5]-Enkephalin (L, LG) or 100 mg Kg^-1 TPLENK (PG), plasma) was 29.3 ng 10^−1mL^−1 and the Tmax ([2]; male, ICR (CD-1), mouse, 70 mg Kg^-1 Leucine[5]-Enkephalin, plasma, read-out: time of peak plasma concentration of Leucine[5]-Enkephalin) was 1 h. The “peptide content of the formulations (HPLC)” value [3] was 99.9%, the “analgesic responders (response 2 or more times the baseline latency)” value (CD-1 mice [4]) was 37.5% and the “mice reaching maximal possible latencies” value (CD-1 mice [4]; cut-off 10 seconds) was 0%.
